5 compounds from patent publication US12180192B2, “Modulators of THR-β and methods of use thereof” (ALIGOS THERAPEUTICS, INC., priority 2019, dated 2024) can be followed below.

Structures are written as SMILES. pEC50: −log10 of the molar value. Like-named read-outs stand apart in the source and are kept apart here.

Experiment [1] deals with CPT1A gene expression in Huh-7 cells. As to the kind of experiment: Huh-7 differential gene expression, CPT1A RT-qPCR (Assay 3). The note with it: Homo sapiens, Huh-7, 24 h; for pEC50: read-out: Activity category Assay 3 EC50; for Emax: read-out: Activity category Assay 3 Emax. The format is cell-based. The procedure:
Huh-7 Differential Gene Expression (Assay 3)
Fetal bovine serum (FBS) was incubated with washed resin (50 mg resin/mL FBS; resin weight is dry weight of resin prior to washing) for 5 hr at room temperature on a rotor. The FBS was separated from the resin via centrifugation and incubated with new, washed resin for 18 h at room temperature on a rotor.
Cell Culture and Drug Treatment
Huh-7 cells were cultured in DMEM (10-013-CM, Corning) supplemented with 10% FBS and 1% Pen-Strep at 37° C. under 5% C02. When 70-80% confluence was reached, the cells were removed by trypsinization. The medium was aspirated from the cell culture dish, the cell monolayer was washed with 1×PBS, and 0.05% trypsin, 0.53 mM EDTA (25-052-CV, Corning) solution was added to the dish. After 3 min incubation, the cells were detached completely by repeatedly pipetting solution onto the monolayer. Equal volume of DMEM supplemented with 10% rFBS and 1% Pen-Strep (TH-depleted DMEM) was added to the dish to inactivate the trypsin. The cell suspension was centrifuged at 350×g at room temperature for 3 min. The supernatant was aspirated out and the cell pellet was resuspended in TH-depleted DMEM. […] After 24 hr incubation, the media was replaced with treatment media. All compounds were serially diluted in DMSO and final concentrations were reached by dilution in TH-depleted DMEM (0.1% DMSO). The cells were incubated in treatment media for 24 hr. Treatments were performed in biological duplicates.
After 24 hr in treatment media, the cells were lysed directly on the culture plates and cDNA was produced using the TaqMan™ Fast Advanced Cells-to-CT™ Kit (A35374, Invitrogen) and following the manufacturer's protocol. RT-qPCR for CPT1A (Hs00912671_m1) and two housekeeping genes, ACTB (Hs01060665_g1) and TFG (Hs02832013_g1), was performed using TaqMan™ Fast Advanced Master Mix. RT-qPCR reactions were run on the qTOWER^3 84 G (Analytik Jena) in technical duplicates.
ΔRn values were obtained from the qPCRsoft384 1.0 software and CPT1A gene expression was quantified via the 2-ΔΔCt method. Dose-response curves were generated using GraphPad Prism 8 using four parameter logistic equation without top constraint to derive EC50 and Emax.
(In general: Real-time PCR tracks product formation cycle by cycle.)

A further experiment addresses T1, THR beta (Homo sapiens, UniProt P10828).
T1 construct: expressed in transfected cells; host or cells: HEK293T (ATCC CRL-3216)
T1 sequence (P10828 1-461): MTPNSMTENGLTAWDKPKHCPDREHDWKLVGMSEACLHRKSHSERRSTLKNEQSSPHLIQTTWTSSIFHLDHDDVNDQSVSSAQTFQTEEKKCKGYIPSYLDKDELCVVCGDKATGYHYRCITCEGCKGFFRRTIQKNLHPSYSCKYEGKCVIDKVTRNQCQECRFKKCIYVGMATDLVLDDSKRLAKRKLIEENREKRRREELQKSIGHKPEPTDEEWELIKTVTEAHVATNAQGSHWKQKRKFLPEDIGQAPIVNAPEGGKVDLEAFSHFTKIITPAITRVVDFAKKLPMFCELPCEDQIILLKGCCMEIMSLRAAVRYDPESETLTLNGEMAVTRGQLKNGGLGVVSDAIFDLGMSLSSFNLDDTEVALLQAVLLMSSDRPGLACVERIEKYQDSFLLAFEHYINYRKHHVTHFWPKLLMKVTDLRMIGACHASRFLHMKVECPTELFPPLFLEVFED
T1 sequence (P19793 1-462 partner): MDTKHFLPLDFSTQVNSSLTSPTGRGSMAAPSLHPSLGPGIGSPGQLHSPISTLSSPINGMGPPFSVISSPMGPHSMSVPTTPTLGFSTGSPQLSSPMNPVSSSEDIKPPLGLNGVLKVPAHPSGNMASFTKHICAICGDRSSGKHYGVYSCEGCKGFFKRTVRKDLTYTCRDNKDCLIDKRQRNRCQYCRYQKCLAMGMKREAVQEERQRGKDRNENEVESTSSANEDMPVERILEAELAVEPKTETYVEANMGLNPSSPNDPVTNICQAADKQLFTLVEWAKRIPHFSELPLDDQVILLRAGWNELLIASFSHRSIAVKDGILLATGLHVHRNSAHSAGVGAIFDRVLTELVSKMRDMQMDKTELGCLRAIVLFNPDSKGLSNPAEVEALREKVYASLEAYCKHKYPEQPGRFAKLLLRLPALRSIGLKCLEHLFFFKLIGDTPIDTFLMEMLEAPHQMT
As to the kind of experiment: HEK293T THR beta/RXR luciferase reporter assay (Assay 2). In kind it is cell-based. In short, it runs like this:
(§1)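 HEK293T cells transiently transfected with TRE-luciferase reporter, RXR, and THR alpha or THR beta plasmid; ten five-fold compound dilutions from DMSO added for 18-24 h. One-Glo luminescence read; percent agonism normalized between negative and positive controls.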
On the technique in general: In a reporter assay the amount or activity of a reporter protein is the signal.

The target of the next experiment is T2, THR alpha (Homo sapiens, UniProt P10827).
T2 construct: expressed in transfected cells; host or cells: HEK293T (ATCC CRL-3216)
T2 sequence (P10827 1-410 isoform P10827-2): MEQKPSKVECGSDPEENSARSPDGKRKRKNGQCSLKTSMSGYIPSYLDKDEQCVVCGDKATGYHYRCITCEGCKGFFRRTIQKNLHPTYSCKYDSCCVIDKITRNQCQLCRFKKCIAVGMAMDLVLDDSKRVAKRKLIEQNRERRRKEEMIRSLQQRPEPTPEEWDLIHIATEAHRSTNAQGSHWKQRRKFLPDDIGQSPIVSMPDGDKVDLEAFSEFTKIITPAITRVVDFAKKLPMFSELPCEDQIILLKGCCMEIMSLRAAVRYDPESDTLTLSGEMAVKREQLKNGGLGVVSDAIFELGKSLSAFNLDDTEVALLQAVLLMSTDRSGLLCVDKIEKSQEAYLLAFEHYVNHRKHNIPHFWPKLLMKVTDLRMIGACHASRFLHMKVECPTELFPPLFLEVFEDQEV
T2 sequence (P19793 1-462 partner): T1 sequence (P19793 1-462 partner)
As to the kind of experiment: HEK293T THR alpha/RXR luciferase reporter assay (Assay 2). In kind it is cell-based. The note with it: Assay 2. Put shortly: as §1

For experiment [2], the target named is T3, human thyroid receptor beta ligand-binding domain (LBD) (Homo sapiens, UniProt P10828).
T3 construct: purchased Invitrogen
T3 sequence (P10828 217-461 limits assumed): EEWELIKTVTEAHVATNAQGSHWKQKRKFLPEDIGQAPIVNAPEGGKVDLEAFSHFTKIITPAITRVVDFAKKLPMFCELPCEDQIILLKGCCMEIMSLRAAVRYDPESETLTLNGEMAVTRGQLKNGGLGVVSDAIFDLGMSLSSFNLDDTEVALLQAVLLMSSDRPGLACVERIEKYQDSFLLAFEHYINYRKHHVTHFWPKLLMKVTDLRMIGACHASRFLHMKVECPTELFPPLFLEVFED
As to the kind of experiment: TR-FRET thyroid receptor beta coactivator assay (THR biochemical assay, Assay 1). In short, it runs like this: (§2)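 GST-tagged human TRβ or TRα LBD, 1 nM final (stated for β), with fluorescein-SRC2-2 coactivator peptide (200 nM) and Tb-anti-GST antibody (2 nM). Agonists serially diluted, 1% DMSO final. 1 h incubation at rt in the dark; TR-FRET read as rise in fluorescein and drop in terbium emission.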

For experiment [3], the target named is T4, human thyroid receptor alpha ligand-binding domain (LBD) (Homo sapiens, UniProt P10827).
T4 construct: purchased Invitrogen
The experiment in a line: TR-FRET thyroid receptor alpha coactivator assay (THR biochemical assay, Assay 1). Put shortly: as §2
In general terms: TR-FRET usually uses a lanthanide donor and a delayed reading to cut background.

The mark [4] stands for this setting: Table 6, Huh-7 cells, CPT1A, 24 hr treatment.

For `CC(C)c1cc(Oc2c(Cl)cc(-n3nc(CC(=O)O)c(=O)[nH]c3=O)cc2Cl)n[nH]c1=O` [Compound 13, 2-(2-(3,5-dichloro-4-((5-isopropyl-6-oxo-1,6-dihydropyridazin-3-yl)oxy)phenyl)-3,5-dioxo-2,3,4,5-tetra-hydro-1,2,4-triazin-6-yl)acetic acid], in experiment [1] (setting [4]), the pEC50 is < 7.00 and the Emax is > 75%.

As for `C#Cc1nn(-c2cc(Cl)c(Oc3cc(C(C)C)c(=O)[nH]n3)c(Cl)c2)c(=O)[nH]c1=O` [Compound 11, 2-[3,5-dichloro-4-[(5-isopropyl-6-oxo-1H-pyridazin-3-yl)oxy]phenyl]-6-ethynyl-4H-1,2,4-triazine-3,5-dione], in experiment [1] (setting [4]), the pEC50 was > 7.00 and the Emax is > 75%.

Consider `N[C@@H](Cc1cc(I)c(Oc2ccc(O)c(I)c2)c(I)c1)C(=O)O` [Compound T3, triiodothyronine, reference compound], for which, in experiment [1], the pEC50 was > 7.00 and the Emax was > 75%.

`Nc1nn(-c2cc(Cl)c(Oc3cc(C4CCCC4)c(=O)[nH]n3)c(Cl)c2)c(=O)[nH]c1=O` [Compound 42, 6-amino-2-(3,5-dichloro-4-((5-cyclopentyl-6-oxo-1,6-dihydropyridazin-3-yl)oxy)phenyl)-1,2,4-triazine-3,5(2H,4H)-dione]: in experiment [1] (setting [4]), the pEC50 is > 7.00 and the Emax was 50 to 75%.

As to `Cc1ccc(-c2cc(=O)[nH]nc2Oc2c(Cl)cc(-n3nc(N)c(=O)[nH]c3=O)cc2Cl)cc1C` [Compound 113], the Emax at THR beta (HEK-293T, Table 5, Assay 2, THRβ, read-out: Activity category Assay 2 THRβ (Emax)) is < 50%; on THR alpha (HEK-293T, Table 5, THRα, read-out: Activity category Assay 2 THRα (Emax)), < 50%; in experiment [2] (Table 5, Assay 1, THRβ, read-out: Activity category Assay 1 THRβ (Emax)), < 50%; in experiment [3] (Table 5, THRα, read-out: Activity category Assay 1 THRα (Emax)) it was < 50%. For the same compound, the pEC50 is 6.00 to 6.60 on THR beta (THR-beta, HEK293T reporter assay, read-out: Activity category Assay 2 (EC50, THR-beta agonist)); < 5.00 on THR alpha (Table 4, THR-alpha, read-out: Activity category Assay 2 (EC50, THR-alpha agonist activity)); 6.60 to 7.30 in experiment [2] (THR-beta, TR-FRET coactivator assay, read-out: Activity category Assay 1 (EC50, THR-beta agonist)); 6.00 to 6.60 in experiment [3] (Table 4, THR-alpha, read-out: Activity category Assay 1 (EC50, THR-alpha agonist activity)).

Broadly, the pEC50 is the EC50 on a negative log10 scale, so that one unit is a factor of ten. As a reminder, the Emax is the greatest response seen or fitted, relative to the assay's reference.
